Laboratory results published in US9770026B2, “Substituted pyrimidine compound and uses thereof” (Shenyang Sinochem Agrochemicals R&D Co., Ltd., priority 2012, dated 2017).

Legend:
corn rust = test: protectant activity in vivo against corn rust; details: 400 ppm
cucumber downy mildew = test: protectant activity in vivo against cucumber downy mildew; details: for control effect against cucumber downy mildew (%): protectant activity
[1] = system: Green peach aphids (Myzus Persicae Sulzer); test: bioactivity test against green peach aphid, airbrush foliar spray; format: in vivo; details: death rate after 48 hrs
Method: Compounds were dissolved in mixed solvent (acetone:methanol=1:1), and diluted to required concentration with water containing 0.1% of tween 80.
Diamond back moth, armyworm, peach aphid and carmine spider mite were used as targets and the method of spraying by airbrush was used for determination of insecticidal biassays.
Method: Filter papers were put in culture dishes (Diameter=6 cm), and water was dripped on filter papers for preserving moisture. Green peach aphids (Myzus Persicae Sulzer) were maintained on cabbage. Leaves (Diameter=3 cm) of approximately 15-30 aphids were put in the culture dishes. Bioactivity tests were used the method of Airbrush Foliar Spray, pressure=10 psi (0.7 kg/cm2), spray volume=0.5 mL. The studies were conducted at […] 25±1 C in incubator cabinets with 60±5% RH. Survey the survival aphids after 48 hrs and calculate the death rates.

wheat powdery mildew = test: protectant activity in vivo against wheat powdery mildew

Cc1nc(Cl)c(Cl)c(NCCc2ccc(Oc3ccccc3)nc2)n1 [III-2521]
100%: protectant activity against corn rust in vivo (corn rust) | control effect against cucumber downy mildew (%) (cucumber downy mildew; 12.5 mg/L) | control effect against cucumber downy mildew (%) (cucumber downy mildew; 25 mg/L) | control effect against cucumber downy mildew (%) (cucumber downy mildew; 50 mg/L) | control effect against cucumber downy mildew (%) (cucumber downy mildew; 100 mg/L) | control effect against cucumber downy mildew (%) (cucumber downy mildew; 400 mg/L) | protectant activity against cucumber downy mildew in vivo (cucumber downy mildew; 12.5 ppm) | protectant activity against cucumber downy mildew in vivo (cucumber downy mildew; 25 ppm) | protectant activity against cucumber downy mildew in vivo (cucumber downy mildew; 50 ppm) | protectant activity against cucumber downy mildew in vivo (cucumber downy mildew; 100 ppm) | protectant activity against cucumber downy mildew in vivo (cucumber downy mildew; 400 ppm)

CCc1ncnc(NCCc2ccc(Oc3ccc(Cl)cc3C)nc2)c1Cl [III-290]
100%: protectant activity against cucumber downy mildew in vivo (cucumber downy mildew; 400 ppm)

Cc1ncnc(NCCc2ccc(Oc3ccc(C(F)(F)F)cc3Cl)nc2)c1Cl [III-121]
100%: control (test results against green peach aphid) ([1]; 100 ppm) | control (test results against green peach aphid) ([1]; 600 ppm) | protectant activity against wheat powdery mildew in vivo (wheat powdery mildew; 100 ppm) | protectant activity against wheat powdery mildew in vivo (wheat powdery mildew; 400 ppm) | control effect against cucumber downy mildew (%) (cucumber downy mildew; 25 mg/L) | control effect against cucumber downy mildew (%) (cucumber downy mildew; 50 mg/L) | control effect against cucumber downy mildew (%) (cucumber downy mildew; 100 mg/L) | control effect against cucumber downy mildew (%) (cucumber downy mildew; 400 mg/L) | protectant activity against cucumber downy mildew in vivo (cucumber downy mildew; 25 ppm) | protectant activity against cucumber downy mildew in vivo (cucumber downy mildew; 50 ppm) | protectant activity against cucumber downy mildew in vivo (cucumber downy mildew; 100 ppm) | protectant activity against cucumber downy mildew in vivo (cucumber downy mildew; 400 ppm)

Cc1ncnc(NCCc2ccc(Oc3c([N+](=O)[O-])cc(Cl)cc3C(F)(F)F)cc2)c1Cl [II-202]
100%: protectant activity against cucumber downy mildew in vivo (cucumber downy mildew; 400 ppm)

Cc1ncnc(NCCc2ccc(Oc3ncc(C(F)(F)F)cc3Cl)c(Cl)c2)c1Cl [Compound I-1414]
100%: control (test results against green peach aphid) ([1]; 100 ppm) | control (test results against green peach aphid) ([1]; 600 ppm) | protectant activity against wheat powdery mildew in vivo (wheat powdery mildew; 100 ppm) | protectant activity against wheat powdery mildew in vivo (wheat powdery mildew; 400 ppm)

Cc1nc(Cl)c(Cl)c(NCCc2ccc(Oc3cccc(Cl)c3)nc2)n1 [III-2526]
100%: protectant activity against corn rust in vivo (corn rust) | protectant activity against cucumber downy mildew in vivo (cucumber downy mildew; 25 ppm) | protectant activity against cucumber downy mildew in vivo (cucumber downy mildew; 50 ppm) | protectant activity against cucumber downy mildew in vivo (cucumber downy mildew; 100 ppm) | protectant activity against cucumber downy mildew in vivo (cucumber downy mildew; 400 ppm)

Cc1ncnc(NCCc2ccc(Oc3ccc([N+](=O)[O-])c(Cl)c3C)cc2)c1Cl [II-236]
100%: control (test results against green peach aphid) ([1]; 600 ppm) | control effect against cucumber downy mildew (%) (cucumber downy mildew; 25 mg/L) | control effect against cucumber downy mildew (%) (cucumber downy mildew; 50 mg/L) | control effect against cucumber downy mildew (%) (cucumber downy mildew; 100 mg/L) | control effect against cucumber downy mildew (%) (cucumber downy mildew; 400 mg/L) | protectant activity against cucumber downy mildew in vivo (cucumber downy mildew; 25 ppm) | protectant activity against cucumber downy mildew in vivo (cucumber downy mildew; 50 ppm) | protectant activity against cucumber downy mildew in vivo (cucumber downy mildew; 100 ppm) | protectant activity against cucumber downy mildew in vivo (cucumber downy mildew; 400 ppm)

Cc1ncnc(NCCc2ccc(Oc3ncc(C(F)(F)F)cc3Cl)cc2)c1Br [Compound I-1878]
100%: protectant activity against corn rust in vivo (corn rust) | control (test results against green peach aphid) ([1]; 10 ppm) | control (test results against green peach aphid) ([1]; 100 ppm) | control (test results against green peach aphid) ([1]; 600 ppm) | protectant activity against cucumber downy mildew in vivo (cucumber downy mildew; 400 ppm)

Cc1nc(Cl)c(Cl)c(NCCc2ccc(Oc3cccc(C(F)(F)F)c3)nc2)n1 [III-2541]
100%: protectant activity against wheat powdery mildew in vivo (wheat powdery mildew; 400 ppm) | protectant activity against cucumber downy mildew in vivo (cucumber downy mildew; 50 ppm) | protectant activity against cucumber downy mildew in vivo (cucumber downy mildew; 100 ppm) | protectant activity against cucumber downy mildew in vivo (cucumber downy mildew; 400 ppm)

O=[N+]([O-])c1cc(Cl)ccc1Oc1ccc(CCNc2ncnc(C(F)F)c2Cl)cc1 [II-9058]
100%: protectant activity against wheat powdery mildew in vivo (wheat powdery mildew; 400 ppm) | protectant activity against cucumber downy mildew in vivo (cucumber downy mildew; 400 ppm)
